Experimental data published in patent US20230090255A1, “MAGL INHIBITOR, PREPARATION METHOD THEREFOR AND USE THEREOF” (LUNAN PHARMACEUTICAL GROUP CORPORATION, priority 2019, published 2023).
Marks after values point to notes of the source that are not given here.

How the values were obtained:
[1] = Tissue distribution test in mice; assay type: in vivo; set-up: content in the brain (tissue distribution): unit not given here; conditions: 16 mg/kg subcutaneous injection
[2] = tested on: reserpine-induced mice depression; assay: Reserpine-induced mice depression; assay type: in vivo, ICR mouse; set-up: Awakening / Finger contact / Head touch / Fear / Autonomic activity / Eyelid closure / Upright: scale not given here
Procedure: • Species: ICR mouse • Microbiological level: SPF • Quantity and sex of the animals purchased: male: 75; female: 75 • Quantity and sex of the animals used: male: 75; female: 75 • Body weight: 13-18 g when accepted
Group design: there were 50 pieces for each batch of animals and 3 batches in total; each batch of animals were randomly divided into 5 groups; low, middle and high-dose groups of the samples for test, blank control group and model group; a sample for test was tested per batch.
3.1 Animals were administrated via subcutaneous injection per day with doses of 4, 8 and 16 mg/kg for 6 d in total. 2 h later after the final administration, each animal was subcutaneously injected with 4 mg/kg reserpine except the blank control group; afterwards, indicators, such as, awakening, finger contact, fear, head touch, autonomic activity, upright and eyelid closure were determined 2 h later.
Data statistics and analysis were completed via a computer by SPSS 17.0 software and office 2016, and data statistics was inspected by Kruskal-Wallis. If the Kruskal-Wallis inspection result is significant ((P<0.05), multiple comparison inspection is further performed by a Mann-Whitney U nonparametric test method.

[3] = tested on: mice tail suspension test; assay: Mice tail suspension test; assay type: in vivo, ICR mice; conditions: final 4 min of 6 min, 5 mg/kg intragastric once per day 10 d
Procedure: Male ICR mice having a body weight of 18-22 g. The animals were active on a schedule of normal illumination for 12 h and in the dark for 12 h. Environmental temperature and relative humidity were relatively kept for 22±1° C. and 55±5%.
There were 7 groups of laboratory mice, 10 pieces each group, set as a control group (normal saline), a positive control group (fluoxetine hydrochloride capsule, 5 mg/kg), 5 MAGLZ-II series of administration treatment groups: MAGLZ-II-06, MAGLZ-II-07, MAGLZ-II-11, MAGLZ-II-17 and MAGLZ-II-18, respectively, with an administration concentration of 5 mg/kg.
All medicaments were used once per day via intragastric administration with a dose of 20 mL/kg (body weight), lasting for 10 d. 1 h later after the final administration, the detection of animal behaviors was started.
The tail suspension test (TST) was performed by the method established by Porsolt, et al. (Porsolt R D, Le Pichon M, Jalfre M. Depression: a new animal model sensitive to antidepressant treatments[J]. Nature, 1977, 266(5604):730-732). Mice were respectively suspended on the tail portions with tail suspension clamps at a distance of 10 mm away from the tail portion of the box (250 mm×250 mm×300 mm) and a distance of 5 cm where the head of each mouse was away from the bottom portion. Noise was tested in a dark room having minimum background, and each mouse was suspended for 6 min, and an immobility time was recorded at intervals in the final 4 min. Judgment standard: the mice stopped struggling and kept still completely.
All data are shown by x̅±SD, and the comparison among groups is analyzed by one-way variance.

[4] = high dose 16 mg/kg sc 6 d, 2 h after reserpine 4 mg/kg
[5] = low dose 4 mg/kg sc 6 d, 2 h after reserpine 4 mg/kg
[6] = middle dose 8 mg/kg sc 6 d, 2 h after reserpine 4 mg/kg

O=C(Nc1cccc(Cl)c1)C1CCN(C(=O)c2cccc(O)c2)CC1 [MAGLZ-II-11]
content in the brain, ranking of the test substances [1]: lowest | content in the brain (tissue distribution) ([1]; 1.0 h): 0 | content in the brain (tissue distribution) ([1]; 2.0 h): 1.6 | content in the brain (tissue distribution) ([1]; 5.0 h): 1.3 | effect on reserpine-induced depression (conclusion) ([2]; 4, 8 and 16 mg/kg sc 6 d): has a certain effect | Autonomic activity [2, 4]: 1.8±1.66* * | Awakening [2, 4]: 3.2±1.33 | Eyelid closure [2, 4]: 2±1.26 | Fear [2, 4]: 0.2±0.60 | Finger contact [2, 4]: 2±1.79 | Head touch [2, 4]: 2.6±1.56 | Upright [2, 4]: 1±1.61* * | Autonomic activity [2, 5]: 0.8±1.60 | Awakening [2, 5]: 3±1.61 | Eyelid closure [2, 5]: 1.2±0.98 | Fear [2, 5]: 0±0 | Finger contact [2, 5]: 1.6±1.50 | Head touch [2, 5]: 1±1.34 | Autonomic activity [2, 6]: 0.8±1.60 | Awakening [2, 6]: 2.6±1.56 | Eyelid closure [2, 6]: 1.4±1.28 | Fear [2, 6]: 0±0 | Finger contact [2, 6]: 1.8±1.66 | Head touch [2, 6]: 1.8±1.40 | Accumulated immobility time [3]: 72.81±23.49 S

O=C(Nc1cccc(Cl)c1)C1CCN(C(=O)c2cc3ccccc3[nH]2)CC1 [MAGLZ-II-18]
Accumulated immobility time [3]: 79.68±25.72 S
